Test results: patent publication US6420558B1, “Aminopiperidine derivates as integrin αvβ3 antagonists” (Meiji Seika Kaisha, Ltd., priority 1998, dated 2002)

Legend:
Oral absorption in rats = type: in vivo; settings: data not shown
From the text: Therefore, any of the compounds, wherein R^12 represents an alkyl group or a hydrogen atom, can be used in the treatment of the above diseases.

[1] = tested on: human platelet aggregation; experiment: Human platelet aggregation inhibitory activity (method of Pharmacological Test 1 in WO 94/21599); type: cell-based; settings: human platelets, read-out: inhibition of human platelet aggregation, IC5. value
Experimental: (§1) GP IIb/IIIa Antagonistic Activity and Human Platelet Aggregation Inhibitory Activity
Human platelet aggregation inhibitory activity was measured for the compounds according to the present invention. The measurement of the human platelet aggregation activity was carried out according to the method described in Pharmacological Test 1 in WO 94/21599.

[2] = tested on: human vascular smooth muscle cells adhering to immobilized human vitronectin; experiment: Inhibitory activity against adhesion of human vascular smooth muscle cells to vitronectin; type: cell-based; settings: 1.5 h; human vitronectin-coated plate, 90 min
Experimental: Inhibitory Activity Against Adhesion of Human Vascular Smooth Muscle Cells to Vitronectin
The adhesion of human vascular smooth muscle cells =+to immobilized human vitronectin was measured in accordance with the method of Liaw et al. (Liaw L, Almeida M, Hart C E, Schwartz S M, and Giachelli C M, Circulation Research, 74 (2), 214-224 (1994)).
A Dulbecco's phosphate buffer (Dulbecco's PBS(−), Nissui Pharmaceutical Co., Ltd.) solution of human plasma-derived vitronectin (CALBIOCHEM) adjusted to a concentration of 4 μg/ml was first added to wells (50 μl/well) of a microplate (Maxisorp, Nunc), and a reaction for immobilization was allowed to proceed at 4° C. overnight. After washing twice with 150 μl of Dulbecco's phosphate buffer, a Dulbecco's phosphate buffer containing 10 mg/ml of bovine serum albumin (SIGMA) was added, followed by blocking at 37° C. for one hr. The assay plate was washed twice with 150 μl of Dulbecco's phosphate buffer.
Separately, human vascular smooth muscle cells cultivated at 37° C. under 5% carbon dioxide in a medium for vascular smooth muscle cells (Clonetics) were separated using a Dulbecco's phosphate buffer containing trypsin-EDTA (GIBCO BRL), washed with Dulbecco's phosphate buffer, and then suspended in a Dulbecco's modified Eagle's basal medium (Nissui Pharmaceutical Co., Ltd.) containing 0.1% bovine serum albumin to a concentration of 5×10^5/ml.
Next, 50 μl of a Dulbecco's modified Eagle's basal medium containing 10 mg/ml of bovine serum albumin with a medicament added thereto was added to the wells of the human vitronectin-coated assay microplate, followed by pre-cultivation under 5% carbon dioxide at 37° C. for 10 min. Thereafter, 50 μl of the medium with human vascular smooth muscle cells suspended therein was added thereto, and the plate was thoroughly stirred. A reaction was allowed to proceed under 5% carbon dioxide at 37° C. for 90 min. The reaction solution containing non-adherent cells were then removed, followed by washing three times with Dulbecco's phosphate buffer. For the adhered cells, 100 μl of a Dulbecco's phosphate buffer containing 4% paraformaldehyde (Wako Pure Chemical Industries, Ltd.) was added, and immobilization was allowed to proceed at room temperature for 10 min. Next, 100 μl of a Dulbecco's phosphate buffer containing 0.5% Toluidine Blue (Croma) and 4% paraformaldehyde was added, and staining was allowed to proceed at room temperature for 5 min, followed by thorough washing with distilled water. The inside of the wells was then air-dried, and a 1% aqueous sodium dodecylsulfate solution was then added to perform cytolysis. The absorbance of the microplate thus obtained was measured at 595 nm. […] The inhibition was calculated by the following equation. IC50 was determined from a primary regression line of the logarithm of each concentration of the test compound and the logarithm of (100−inhibition)/inhibition. [formula]

GP IIb/IIIa = GP IIb/IIIa (Homo sapiens, UniProt P05106+P08514); experiment: GP IIb/IIIa antagonistic activity (method of Pharmacological Test 2 in WO 94/21599); type: binding
Experimental: as §1
GP IIb/IIIa antagonistic activity was measured for the compounds according to the present invention. The measurement of the GP IIb/IIIa antagonistic activity was carried out according to the method described in Pharmacological Test 2 in WO 94/21599.

[3] = target: T1, integrin αvβ3 (vitronectin receptor purified from the human placenta) (Homo sapiens, UniProt P05106+P06756); experiment: αvβ3 binding assay (vitronectin-vitronectin receptor binding assay); settings: vitronectin binding to human placenta vitronectin receptor; read-out: integrin αvβ3 antagonistic activity, IC50 value
T1 construct: a vitronectin receptor (protein content: 118 μg/ml) purified from the human placenta; from tissue; host or cells: human placenta
Experimental: Integrin αvβ3 antagonistic activity was measured for the compounds according to the present invention in a vitronectin-vitronectin receptor binding assay system in accordance with the method of Kouns et al. (W. C. Kouns, D. Kirchhofer, P. Hadvary, A. Edenhofer, T. Weller, G. Pfenninger, H. R. Baumgartner, L. K. Jennings and B. Steiner, Blood, 80, 2539-2547 (1992)).
Specifically, a vitronectin receptor (protein content: 118 μg/ml) purified from the human placenta in accordance with the method of Pytela et al. (R. Pytela, M. D. Pierschbacher, S. Argraves, S. Suzuki, and E. Ruoslahti, Method in Enzymology, 144, 475-489 (1987)) was diluted 50 times with TBS (20 mM Tris-HCl, 150 mM NaCl, 1 mM CaCl2, 1 mM MgCl2, pH 7.4), and distributed and coated on wells (50 μl/well) of a plate (Maxisorp, Nunc, 96 well Immuno Plate). The plate was then allowed to stand at 4° C. for 1 day, washed twice with TBS (200 μl/well), and then subjected to blocking with TBS (150 μl/well) containing 1% bovine serum albumin (SIGMA) at 4° C. overnight. After washing twice with TBS (200 μl/well), 50 μl of vitronectin (CALBIOCHEM) adjusted to 0.2 μg/ml by the addition of TBS (TBS-Tween) containing 0.01% Tween-20 was mixed with 50 μl of each test compound adjusted to each concentration in wells, and a reaction was allowed to proceed at room temperature for 4 hr. After the completion of the reaction, the wells were washed five times with TBS-Tween. A solution prepared by diluting anti-vitronectin rabbit antiserum (CHEMICON) 500 times with TBS-Tween was added as a primary antibody in an amount of 50 μl/well, and a reaction was allowed to proceed at room temperature for 1.5 hr. After washing five times with 200 μl/well of TBS-Tween, a peroxidase (POD)-labeled anti-rabbit IgG antibody solution (CAPPEL) diluted 500 times with TBS-Tween was added as a secondary antibody in an amount of 50 μl/well, and a reaction was allowed to proceed at room temperature for 1.5 hr. After washing five times with TBS-Tween (200 μl/well), ABTS (2,2′-azino-bis(3-ethylbenzthiazoline-6-sulfonic acid), SIGMA) was adjusted to 1 mg/ml by the addition of a ten-fold diluted POD-buffer (ZYMED), and added in an amount of 50 μl/well, and a reaction was allowed to proceed for 5 to 10 min. A 0.1 M citric acid buffer (pH 4.3) containing 0.05% NaN3 was added in an amount of 50 μl/well to stop the reaction, followed by the measurement of the absorbance at 415 nm with a microplate reader (MTP 32, Corona Electric) (reference: 675 nm). The total binding was defined as the absorbance after a reaction using 50 μl of TBS-Tween instead of the test compound, and the non-specific binding (100% inhibition) was defined as the absorbance after a reaction using 50 μl of TBS-Tween containing 2×10^−3 M RGDS. The inhibition was calculated by the following equation: [formula]
IC50 was determined from a primary regression line of the logarithm of each concentration of the test compound and the logarithm of (100−inhibition)/inhibition.

Sequence of GP IIb/IIIa (P08514 32-887 limits assumed): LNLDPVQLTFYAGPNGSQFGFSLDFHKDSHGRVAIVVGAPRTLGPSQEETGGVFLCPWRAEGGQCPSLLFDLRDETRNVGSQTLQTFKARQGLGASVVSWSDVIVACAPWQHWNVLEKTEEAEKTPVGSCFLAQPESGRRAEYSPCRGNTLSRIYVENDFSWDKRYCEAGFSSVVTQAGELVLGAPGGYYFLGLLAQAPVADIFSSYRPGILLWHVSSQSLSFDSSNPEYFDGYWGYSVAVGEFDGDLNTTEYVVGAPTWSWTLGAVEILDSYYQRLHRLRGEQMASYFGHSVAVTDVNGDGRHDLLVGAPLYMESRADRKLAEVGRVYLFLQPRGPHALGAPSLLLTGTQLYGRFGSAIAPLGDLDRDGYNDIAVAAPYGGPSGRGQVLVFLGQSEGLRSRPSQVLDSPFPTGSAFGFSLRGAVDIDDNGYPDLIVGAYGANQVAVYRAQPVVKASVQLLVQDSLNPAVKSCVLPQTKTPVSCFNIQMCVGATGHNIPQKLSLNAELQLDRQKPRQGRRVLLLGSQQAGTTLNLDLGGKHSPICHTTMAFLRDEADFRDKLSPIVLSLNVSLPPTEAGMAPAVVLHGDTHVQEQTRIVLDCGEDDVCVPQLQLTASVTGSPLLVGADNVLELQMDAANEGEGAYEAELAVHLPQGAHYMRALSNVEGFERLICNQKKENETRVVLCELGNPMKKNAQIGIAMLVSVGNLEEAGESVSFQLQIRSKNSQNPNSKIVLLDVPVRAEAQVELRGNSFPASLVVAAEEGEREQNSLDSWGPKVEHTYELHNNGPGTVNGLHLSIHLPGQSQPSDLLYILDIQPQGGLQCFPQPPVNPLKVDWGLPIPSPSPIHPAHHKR
Sequence of GP IIb/IIIa (P08514 891-1039 limits assumed): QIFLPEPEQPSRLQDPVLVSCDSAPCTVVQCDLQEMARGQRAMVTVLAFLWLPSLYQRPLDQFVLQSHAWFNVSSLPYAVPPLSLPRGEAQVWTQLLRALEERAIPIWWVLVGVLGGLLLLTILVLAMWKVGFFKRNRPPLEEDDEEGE
Sequence of GP IIb/IIIa (P05106 27-788): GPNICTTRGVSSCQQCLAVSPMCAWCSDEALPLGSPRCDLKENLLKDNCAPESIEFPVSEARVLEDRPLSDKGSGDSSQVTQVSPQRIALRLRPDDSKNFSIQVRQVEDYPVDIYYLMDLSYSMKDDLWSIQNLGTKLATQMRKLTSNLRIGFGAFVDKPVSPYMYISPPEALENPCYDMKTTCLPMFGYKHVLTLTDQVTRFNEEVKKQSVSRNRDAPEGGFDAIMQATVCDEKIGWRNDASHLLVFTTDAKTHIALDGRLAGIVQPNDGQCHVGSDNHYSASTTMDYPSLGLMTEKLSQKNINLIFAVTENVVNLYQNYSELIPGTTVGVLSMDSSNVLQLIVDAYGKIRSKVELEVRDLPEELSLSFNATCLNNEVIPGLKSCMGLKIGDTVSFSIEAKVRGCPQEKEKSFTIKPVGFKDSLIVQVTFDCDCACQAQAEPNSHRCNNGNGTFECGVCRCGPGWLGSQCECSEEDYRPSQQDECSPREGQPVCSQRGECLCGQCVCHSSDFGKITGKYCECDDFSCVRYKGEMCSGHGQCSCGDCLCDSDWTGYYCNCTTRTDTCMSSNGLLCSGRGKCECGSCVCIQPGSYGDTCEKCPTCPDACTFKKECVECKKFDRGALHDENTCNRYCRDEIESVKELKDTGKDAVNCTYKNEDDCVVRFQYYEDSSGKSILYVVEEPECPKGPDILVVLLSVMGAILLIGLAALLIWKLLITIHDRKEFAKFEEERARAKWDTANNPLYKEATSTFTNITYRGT
T1 sequence (P06756 31-889 limits assumed): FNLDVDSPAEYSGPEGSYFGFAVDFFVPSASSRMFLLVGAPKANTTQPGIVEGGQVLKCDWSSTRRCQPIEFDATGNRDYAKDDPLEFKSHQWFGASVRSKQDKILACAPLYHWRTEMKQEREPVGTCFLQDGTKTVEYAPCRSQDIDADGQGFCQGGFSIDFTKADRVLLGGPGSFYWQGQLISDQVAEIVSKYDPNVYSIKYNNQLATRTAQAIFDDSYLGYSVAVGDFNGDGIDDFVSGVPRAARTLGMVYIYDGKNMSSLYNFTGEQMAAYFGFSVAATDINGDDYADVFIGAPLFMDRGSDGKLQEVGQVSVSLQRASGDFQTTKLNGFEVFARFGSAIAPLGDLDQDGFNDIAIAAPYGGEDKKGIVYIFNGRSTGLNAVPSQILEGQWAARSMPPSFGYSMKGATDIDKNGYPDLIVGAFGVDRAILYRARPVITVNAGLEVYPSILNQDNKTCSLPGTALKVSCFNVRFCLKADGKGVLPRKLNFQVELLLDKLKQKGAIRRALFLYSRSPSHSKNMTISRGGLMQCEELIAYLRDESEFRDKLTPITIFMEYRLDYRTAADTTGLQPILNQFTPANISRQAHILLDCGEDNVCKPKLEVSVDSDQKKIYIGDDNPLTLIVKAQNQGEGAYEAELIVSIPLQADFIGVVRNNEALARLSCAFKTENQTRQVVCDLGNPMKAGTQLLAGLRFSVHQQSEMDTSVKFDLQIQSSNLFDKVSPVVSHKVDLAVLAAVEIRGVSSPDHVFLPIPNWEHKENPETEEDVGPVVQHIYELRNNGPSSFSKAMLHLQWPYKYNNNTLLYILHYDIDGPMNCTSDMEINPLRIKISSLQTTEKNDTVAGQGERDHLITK
T1 sequence (P06756 891-1048 limits assumed): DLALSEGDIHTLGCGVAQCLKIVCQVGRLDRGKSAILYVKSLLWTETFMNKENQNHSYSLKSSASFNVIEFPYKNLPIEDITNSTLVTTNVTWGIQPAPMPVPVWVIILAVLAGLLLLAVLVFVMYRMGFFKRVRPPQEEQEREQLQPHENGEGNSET
T1 sequence (P05106 27-788): as the sequence (P05106 27-788) above

SMILES | oral absorption (Oral absorption in rats) | IC50 [1] [nM] | IC50 [2] [nM] | IC50 (GP IIb/IIIa) [nM] | IC50 [3] [nM]
O=C(NC[C@H](NS(=O)(=O)c1ccccc1)C(=O)O)c1ccc(N2CCC(Nc3ncccn3)CC2)c(Cl)c1 [Example 59, (2S)-Benzenesulfonylamino-3-[3-chloro-4-{4-(pyrimidin-2-ylamino)piperidin-1-yl}benzoylamino]-propionic acid] | had oral absorption |  |  |  | 
O=C(NC[C@H](NS(=O)(=O)c1ccccc1)C(=O)O)c1ccc(N2CCC(NC3=NCCCN3)CC2)c(Cl)c1 [Example 60, (2S)-Benzenesulfonylamino-3-[3-chloro-4-{4-(1,4,5,6-tetrahydropyrimidin-2-ylamino)piperidin-1-yl}-benzoylamino]propionic acid] |  | ≤ 90 | ≤ 70 | ≤ 1 | ≤ 1
